Results on nine compounds are retold here after patent US12522594B2, “2-heteroaryl-3-oxo-2,3-dihydropyridazine-4-carboxamides for the treatment of cancer” (Deutsches Krebsforschungszentrum, priority 2017, dated 2026).

What all share (format): cell-based
The target in test [1] is T1, AHR (Homo sapiens, UniProt P35869).
T1 sequence (P35869 11-848): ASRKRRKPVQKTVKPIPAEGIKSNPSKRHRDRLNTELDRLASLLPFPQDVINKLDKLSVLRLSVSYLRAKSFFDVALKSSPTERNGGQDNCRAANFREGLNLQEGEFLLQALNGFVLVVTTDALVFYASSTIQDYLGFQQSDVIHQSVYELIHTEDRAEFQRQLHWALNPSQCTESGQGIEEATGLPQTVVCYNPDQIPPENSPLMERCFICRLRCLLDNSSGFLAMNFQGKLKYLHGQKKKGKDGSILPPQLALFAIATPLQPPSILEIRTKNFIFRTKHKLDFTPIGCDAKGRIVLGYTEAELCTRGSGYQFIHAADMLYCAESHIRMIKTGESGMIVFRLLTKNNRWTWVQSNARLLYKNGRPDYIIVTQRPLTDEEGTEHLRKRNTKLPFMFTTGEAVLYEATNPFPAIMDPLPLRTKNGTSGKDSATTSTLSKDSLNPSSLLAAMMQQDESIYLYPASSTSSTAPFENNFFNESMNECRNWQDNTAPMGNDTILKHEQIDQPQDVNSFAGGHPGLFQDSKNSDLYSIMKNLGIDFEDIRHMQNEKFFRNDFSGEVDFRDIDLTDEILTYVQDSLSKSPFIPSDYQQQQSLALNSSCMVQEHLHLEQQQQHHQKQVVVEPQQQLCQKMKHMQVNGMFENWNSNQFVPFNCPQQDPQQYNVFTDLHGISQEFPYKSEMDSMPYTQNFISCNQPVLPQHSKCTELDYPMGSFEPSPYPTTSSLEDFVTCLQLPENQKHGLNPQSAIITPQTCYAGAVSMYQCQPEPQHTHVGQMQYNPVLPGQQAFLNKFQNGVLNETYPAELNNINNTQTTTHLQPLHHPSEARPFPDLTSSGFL
As to the kind of experiment: In vitro assay 3: AHR-regulated CYP1A1 expression in human cell line (U937, qPCR, KA stimulation). The conditions noted are these: U937 cells, 200 uM KA, 6 hours, CYP1A1 expression by qPCR; read-out: Assay 3: Hum CYP1A1 Antagonism IC50. The method, then: In Vitro Assay 3: AHR-Regulated CYP1A1 Expression in Human Cell Line
To assess the AHR inhibitory activity of the substances described in this application, the ability thereof to antagonise ligand-induced AHR gene regulation in a dose-dependent manner was quantified. For this purpose, quantitative PCR analysis was used to determine expression of the AHR-regulated gene CYP1A1 in a human monocytic U937 cell line upon stimulation with 200 uM KA in the presence and absence of AHR inhibitor. […] CYP1A1 expression was induced with 200 uM KA (positive control) in the presence or absence of the substances for 6 hours. Human U937 cells were typically incubated with eight different concentrations of the substances (1 nM, 3 nM, 10 nM, 30 nM, 100 nM, 300 nM, 1 uM and 3 uM) and analyzed in duplicate on the same microtitre plate. […] Unstimulated cells were used as the negative control. Taqman probes for human CYP1A1 (Hs01054797_g1) and human HPRT (Hs02800695_m1) were used to analyze fold expression of CYP1A1 of HPRT. Quantitation was performed on a Taqman SDS7900HT.
On the technique in general: Quantitative PCR measures a nucleic acid by following its amplification.

Test [2] addresses T1, AHR. As to the kind of experiment: In vitro assay 1: antagonism in human cell line (transactivation assay, U87 cells prestimulated with kynurenic acid, DRE firefly luciferase reporter). To be noted: 150 uM kynurenic acid, 20 hours, read-out: Assay 1: AHR-luc Hum Antagonism IC50. Further details: host or cells: U87 glioblastoma cells, stably transfected with DRE firefly luciferase and renilla reporter constructs. In outline: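 Antagonism measured after kynurenic acid prestimulation in U87 cells that express AHR endogenously and stably harbor a firefly luciferase gene under DRE control plus a constitutive renilla construct. Positive and negative controls served for normalization.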
(In general: In a reporter assay the amount or activity of a reporter protein is the signal.)

Test [3] has as its target T1, AHR. Put plainly: In vitro assay 2: agonism in human cell line (transactivation assay, U87 cells, DRE firefly luciferase reporter). Further details: host or cells: U87 glioblastoma cells, stably transfected with DRE firefly luciferase and renilla reporter constructs. The conditions noted are these: no kynurenic acid, 20 hours, read-out: Assay 2: AHR-luc Hum Agonism IC50. In outline:
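Agonist readout: DRE firefly luciferase, with constitutive renilla reporter, in stably transfected U87 cells expressing AHR endogenously. Normalization used positive control (300 uM kynurenic acid) and negative control.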

As a reminder, the IC50 is the point on the concentration scale where inhibition reaches its midpoint.

The structures appear in SMILES notation.

Regarding `C[C@H](NC(=O)c1cc(-c2ccc(N(C)C)cc2)nn(-c2cnn(C)c2)c1=O)C(C)(C)O` [Example 310, 6-[4-(Dimethylamino)phenyl]-N-[(2S)-3-hydroxy-3-methylbutan-2-yl]-2-(1-methyl-1H-pyrazol-4-yl)-3-oxo-2,3-dihydropyridazine-4-carboxamide], the IC50 on AHR [1] was 1.69 nM; on AHR [2], 1.7 nM; on AHR [3], above 20000 nM.

For `O=C(N[C@H]1CCCC[C@H]1O)c1cc(-c2ccc(Cl)cc2)nn(-c2cccnc2)c1=O` [Example 125, 6-(4-Chlorophenyl)-N-[(1S,2R)-2-hydroxycyclohexyl]-3-oxo-2-(pyridin-3-yl)-2,3-dihydropyridazine-4-carboxamide], the values for the IC50 on AHR [1], at AHR [2] and on AHR [3] were 4.4 nM, 3.82 nM and above 20000 nM, respectively.

As to `O=C(NCC(O)C(F)(F)F)c1cc(-c2ccc(Cl)cc2)nn(-c2cccnc2)c1=O` (single isomer, unassigned; (-)) [Example 89, (−)-6-(4-Chlorophenyl)-3-oxo-2-(pyridin-3-yl)-N-(3,3,3-trifluoro-2-hydroxypropyl)-2,3-dihydropyridazine-4-carboxamide], the figures for the IC50 on AHR [1], on AHR [2] and at AHR [3] were 2.64 nM, 4.8 nM and above 20000 nM, respectively.

For the compound `C[C@H](CO)NC(=O)c1cc(-c2ccc(C(F)(F)F)cc2)nn(-c2cnn(C)c2)c1=O` [Example 38, (−)-N-[(2R)-1-Hydroxypropan-2-yl]-2-(1-methyl-1H-pyrazol-4-yl)-3-oxo-6-[4-(trifluoromethyl)phenyl]-2,3-dihydropyridazine-4-carboxamide], the IC50 at AHR [1] is 36.2 nM; on AHR [2] it was 34.3 nM; at AHR [3], above 20000 nM.

On to `O=C(N[C@H](CO)C(F)(F)F)c1cc(-c2ccc(Cl)cc2)nn(-c2cccnc2)c1=O` [Example 96, (+)-6-(4-Chlorophenyl)-3-oxo-2-(pyridin-3-yl)-N-[(2R)-1,1,1-trifluoro-3-hydroxypropan-2-yl]-2,3-dihydropyridazine-4-carboxamide], for which the IC50 was 3.77 nM at AHR [1], 3.67 nM on AHR [2] and above 20000 nM at AHR [3].

Consider `C[C@H](CO)NC(=O)c1cc(-c2ccc(C(F)(F)F)cc2)nn(-c2cccnc2)c1=O` [Example 118, N-[(2R)-1-Hydroxypropan-2-yl]-3-oxo-2-(pyridin-3-yl)-6-[4-(trifluoromethyl)phenyl]-2,3-dihydropyridazine-4-carboxamide], for which the half-maximal inhibitory concentration (IC50) is 57 nM at AHR [1], 45.1 nM on AHR [2] and above 20000 nM on AHR [3].

For the compound `CC(C)(O)C(NC(=O)c1cc(-c2ccc(C(F)(F)F)cc2)nn(-c2cccnc2)c1=O)C(F)(F)F` (single isomer, unassigned; (-)) [Example 241, (−)-3-Oxo-2-(pyridin-3-yl)-N-(1,1,1-trifluoro-3-hydroxy-3-methylbutan-2-yl)-6-[4-(trifluoromethyl)phenyl]-2,3-dihydropyridazine-4-carboxamide], the IC50 is 36.3 nM at AHR [1], 10.9 nM on AHR [2] and above 20000 nM on AHR [3].

`O=C(N[C@H]1CCC[C@H]1O)c1cc(-c2ccc(C(F)(F)F)cc2)nn(-c2cccnc2)c1=O` [Example 105, N-[(1S,2R)-2-Hydroxycyclopentyl]-3-oxo-2-(pyridin-3-yl)-6-[4-(trifluoromethyl)phenyl]-2,3-dihydropyridazine-4-carboxamide]: the IC50 is 1.86 nM on AHR [1], 2.37 nM on AHR [2] and above 20000 nM on AHR [3].

As for `CC(C)(O)CNC(=O)c1cc(-c2ccc(C(F)(F)F)nc2)nn(-c2cnsc2)c1=O` [Example 240, N-(2-Hydroxy-2-methylpropyl)-3-oxo-2-(1,2-thiazol-4-yl)-6-[6-(trifluoromethyl)pyridin-3-yl]-2,3-dihydropyridazine-4-carboxamide], the IC50 at AHR [1] was 22.7 nM; at AHR [2] it was 10.6 nM; on AHR [3], above 20000 nM.
